We go through one compound from patent US9416136B2, “Pyrrolopyrimidine compounds and their uses” (Novartis AG, priority 2008, dated 2016).

Assay [1] deals with cell cycle. The experiment in a line: cell cycle analysis. The format is cell-based. The conditions noted are these: concentrations of 1 and 10 uM. From the text: (§1) Moreover, the inhibitory effects of the CDK4 inhibitor are absolutely dependent upon the presence of the Retinoblastoma protein (pRb). Activities in pRb negative cells for candidate CDK4 inhibitors indicate that the compounds have off-target activities and not as selective.

For assay [2], the system named is pRb negative cells. As to the kind of experiment: cell proliferation of pRb negative cells. In kind it is cell-based. The settings on record: high concentrations.
Excerpt: as §1

For `CN(C)C(=O)c1cc2cnc(Nc3ccc(N4CCNCC4)cc3)nc2n1C1CCCC1` [Example 200], the “cell cycle arrest phase” value in assay [1] is listed as “starts to induce G2/M phase blocks”. For the same compound, in assay [2], the “inhibition of cell proliferation of pRb negative cells” value is “does inhibit the cell proliferation of pRb negative cells at high concentrations”.
